Common to all, as to type: in vivo, human
In one experiment the test system is platelets. The experiment is described as follows: TMTsixplex GeLC-MS/MS discovery proteomics of platelet extracts pre and post aspirin treatment. To be noted: for peptide/protein expression after aspirin treatment: 300 mg daily, 1 month oral. On the procedure: To address the shortage of sensitive, robust and reliable markers of aspirin resistance the inventors undertook a comparative proteomic study of platelet extracts derived from samples known to be resistant and sensitive following 1 month's oral administration of therapeutic doses of aspirin (300 mg daily).
Briefly, platelets were purified from blood drawn from individuals with functionally documented aspirin resistance (n=2) or sensitivity (n=4). In each case matched samples were drawn pre- and post-aspirin treatment. Proteins were extracted, reduced and alkylated prior to labelling with a sixplex set of isobaric mass tags (TMTsixplex, Proteome Sciences plc; Refer to FIG. 1b). After labelling sets of six samples were pooled according to a randomised schedule and subjected to 1-dimensional SDS-PAGE. Each gel lane was cut into […] and each band subjected to in gel digestion using trypsin prior to analysis by LC-MS/MS to allow protein identification. Relative quantitation of each protein was achieved by comparing the ion intensity and area under the curve for each of the six TMT Reporter Ions and proteins showing a difference in levels between aspirin resistant and sensitive platelets were thus identified.
From 94 healthy subjects, 2 subjects were determined as aspirin resistance using measurements of platelet aggregommetry (agonist's arachidonic acid and ADP) and 11-dehydroTXB2 in urine. To be defined as truly aspirin resistant subjects must have an abnormal response with both measures. Subjects took 300 mg aspirin daily for 1 month.
Preparation of Platelet Samples 60 ml whole blood was obtained from subjects from the antecubital vein using a Butterfly®19-gauge needle, and collected into NaCl trisodium citrate (final concentration 0.38%). […]
Prior to analysis by GeLC-MS/MS 30 μg of each sample within a TMTsixplex experiment were mixed 1:1:1:1:1:1. The combined sample was analysed by GeLC-MS/MS with the entire gel lane being excised into 15 sections. […]

The test system of another experiment is Integrin beta 3. In words: Integrin beta 3 isotyping SRM assay, post:pre aspirin ratio. On the procedure: 50 ml of whole blood was drawn from subjects into trisodium citrate (final concentration 0.32%) from the antecubital vein using a Butterfly® 19-guage siliconised needle. Blood was centrifuged (20 min, 200×g, room temperature (RT)) to obtain platelet rich plasma (PRP) that was acidified with the addition of 0.3M citric acid (target pH 6.5). Further centrifugation (15 min, 1200×g, RT) produced the platelet pellet that was immediately re-suspended in citrate wash buffer (refer to Appendix 1 for composition) and prostaglandin E1 (Sigma) was added to a final concentration of 10 nM. Removal of residual red cells and monocytes was performed by further centrifugation (3 min, 200×g, RT) and decanting of the platelet rich supernatant. Final centrifugation (15 min, 1200×g, RT) produced the washed platelet pellet that was stored at −80° C. The washed platelet pellet was re-suspended in lysis buffer (NaCl 150 mM, Tris-base 32 mM, NaF 50 mM, Na orthovanadate 1 mM to which 1 ml ethylenediaminetetraacetic acid (EDTA; 0.1M stock solution) and 1 ml Triton-X 100 was added prior to adjusting to pH 7.6 with conc. HCL and volume made up to 100 ml) containing protease inhibitor cocktail (Sigma Aldrich, UK) and placed on ice for 30 min, before agitation on ice for a further 5 min. The sample was centrifuged (5 min, 9000×g, 4° C.) to remove cellular debris. The supernatant was stored at −80° C. Aspirin sensitivity was assessed in individuals prescribed aspirin for secondary prevention using a combination of functional and biochemical assays. […] The amount of endogenous (light) peptide is calculated based on the peak area ratio relative to the 100 fmol spiked heavy peptide. For individuals where samples were available pre and post treatment with Aspirin, a post to pre ratio was calculated to assess any changes in peptide levels. […] For the healthy normal cohort, pre and post aspirin samples were not available and the basal pg measured peptides level per μg total protein were reported.

For experiment [1], the system named is platelet protein biomarkers of aspirin resistance. In words: Aspirin resistance biomarker SRM method (six biomarkers). To be noted: two aspirin resistant and 10 aspirin sensitive platelet digests. From the text:
The six markers are Integrin beta 3 (total) and Integrin beta 3 isoform A, heat shock protein A5, pyruvate kinase isozyme M1/M2, RAB GDP1 alpha & prostaglandin G/H synthase. For each marker two or three proteotypic tryptic peptides were selected and heavy isotope standard synthetic peptides were purchased from a commercial supplier (Thermo Scientific, Belgium). Platelet preparations from Example 3 were also used in the SRM method for simultaneous measurement of six biomarkers of aspirin resistance. Prior to analysis using Platelet Aspirin Resistance assay version 2.0 samples were resuspended in a solution containing 5 fmol/μL of each of the heavy AQUA peptides (See table 2) in the method and 200 μg/mL glucagon. Prior to SRM samples were resolved by RP-chromatography over a 9 minute ACN gradient (5-30%) in 0.2% formic acid at 100 μl/min. The Platelet Aspirin Resistance assay version 2.0 contains 96 SRM transitions, covering 17 peptides from 5 proteins. The SRM cycle time was 2 seconds with retention time windows used to maximise the scan time given to each SRM transition. Including washes and time to equalibrate the column, the total run time of the method was 30 minutes.

The next experiment deals with integrin beta 3 (ITGB3). The experiment is described as follows: SRM analysis of TMT-labelled platelet peptides, post:pre aspirin ratios. As to the method:
Peptides identified in the discovery study from candidate proteins were taken forward if they were proteotypic and had characteristics suitable for robust SRM quantitation i.e. fully hydrolysed, contained no known modifications (either in vivo or experimental) and had suitable MS/MS fragments for Q3 selection. Up to six peptides per protein were selected for targeted quantitation (Table 2). The m/z of Q1 and Q3 transitions for selected peptides were calculated either from data-dependent sequencing in the discovery study or from in silico analysis using Pinpoint (ThermoFisher). The theoretical optimal collision energies for each transitions were also calculated using the discovery data and Pinpoint (ThermoFisher). Peptide dection and quantitation was based on time-alignment of multiple transitions per peptide (up to six transitions per peptide). Only peptides with consistant detection of multiple time-aligned transitions in all subject samples were used in the final quantitation. The final SRM method was then applied to the quantitative analysis of the experimental sample set. TMT-labeled subject samples (70/90 μg, check) were reduced, alkylated, digested in-solution and purified by RP and SCX chromatography. […] The SRM peak area for each pre-aspirin sample was measured relative to the SRM peak area for each post-aspirin sample. […]

Experiment [2] concerns ITGB3 (Glycoprotein IIIa). In words: Western blotting of platelet lysates with N- and C-terminal specific antibodies. The settings on record: irrespective of platelet responsiveness status. On the procedure: Platelet lysates from subjects (10 μg each) were mixed with equal volumes of Laemmli sample buffer (2×) (125 mM Tris-base, 4% SDS, 20% glycerol, 4% β-mercaptoethanol, 0.04% bromophenol blue), and subsequently loaded onto a 12.5% SDS-PAGE gel. Proteins were transferred onto PVDF membranes, and detected using specific antibodies as follows. Paired blots were incubated with Anti-GP111a C-terminal specific (Santa Cruz Biotechnology, Item code sc-6626, C-20) or anti GP111a N-terminal specific (Santa Cruz Biotechnology, Item code sc-6627, N-20) respectively. Bands were scanned and densitometric analysis performed using Image J system (a Java based image processing program developed by the National Institutes of Health, Bethesda, USA).
In general terms: In western blotting, separated proteins are transferred to a membrane and probed.

Take `CC(=O)Oc1ccccc1C(=O)O` [aspirin, acetylsalicyclic acid]: the “levels of vinculin, myosin and talin” value in the experiment with platelets (housekeeping proteins used for normalisation) was “not influenced by aspirin treatment”. The “peptide/protein expression after aspirin treatment” value is on record as “mostly down-regulation of peptide/protein expression” with platelets (platelets from aspirin-resistant subjects) and “remained broadly similar or increased” in the experiment with platelets (platelets from aspirin-sensitive individuals). Besides, the “integrin beta 3 isoform A level after aspirin” value is given as “remained level or decreased” in the experiment on Integrin beta 3 (majority of 10 aspirin sensitive patients) and “expected increase” in the experiment on Integrin beta 3 (two aspirin resistant patients, 1 month treatment). Moreover, in the experiment with Integrin beta 3 (majority of aspirin sensitive patients), the “total integrin beta 3 levels after aspirin” value is recorded as “remained relatively unchanged”. In addition, the “aspirin-dependant expression of integrin beta 3 isoform A, heat shock protein A5, RAB GDP1 alpha, prostaglandin G/H synthase” value in experiment [1] is given as “consistent changes”. Also, in experiment [1], the “aspirin-dependant expression of pyruvate kinase isozyme M1/M2” value was “more variable”. In the experiment on integrin beta 3 (ITGB3) (aspirin resistant compared to aspirin sensitive subjects), the “ITGB3 peptide specific for isoform beta 3A, post:pre aspirin” value was “consistently showed significant changes”. In the experiment on integrin beta 3 (ITGB3) (six subjects pre and post aspirin), the “ITGB3 peptides common to all three isoforms, protein levels after treatment” value is “no difference in protein levels”. For the same compound, the “intensity of staining of integrin beta 3 band, N-terminus antibody” value in experiment [2] is “consistent pre- and post-aspirin treatment”.

The values are drawn from patent publication US20140220694A1, “METHODS AND COMPOSITIONS RELATING TO PLATELET SENSITIVITY” (ELECTROPHORETICS LIMITED, priority 2011, published 2014).
